In patent US6384045B1, “Tricyclic and tetracyclic pyrones” (Kansas State University Research Foundation, priority 1997, dated 2002):
pIC50: −log10 of the molar value. Entries after “also recorded” stand apart in the source; their conditions may differ.

Columns and labels:
[1] = test system: L1210 lymphoblastic leukemia cells; experiment: Inhibition of L1210 tumor cell growth in vitro (Coulter counter); assay type: cell-based, Murine; conditions: for reduction of L1210 cell numbers vs control: 6.25 μM
Protocol: Cells were plated at an initial density of 1×10^4 cells/0.5 ml/well in RPMI 1640 medium, containing 7.5% fortified bovine calf serum, and grown at 37° C. for 4 days in a humidified incubator in 5% CO2 in air. Cells were incubated in the presence or absence (^•, control) of 50 μM 3A (▪), 2D & 2E (□),3D & 3E (▴), 2B & 2C (Δ) 2A (♦), 3B & 3C (⋄), or 10 μM CPT (∘) and their density was monitored in triplicate every 24 h using a Coulter counter. Cells numbers are plotted on a logarithmic scale.
(§1) All solutions of tricyclic pyrone analogs were dissolved and diluted in 100% ethanol (ETOH), whereas CPT (Sigma Chemical Co., St. Louis, Mo.) solutions were prepared in 100% dimethyl sulfoxide (DMSO). Murine L1210 lymphoblastic leukemia cells, obtained from the American Type Culture Collection (Rockville, Md.), were maintained in continuous exponential growth by twice-a-week passage in RPMI 1640 medium supplemented with 7.5% fortified bovine calf serum (HyClone Laboratories, Inc., Logan, Utah). The cultures were incubated at 37° C. in a humidified atmosphere containing 5% CO2. All drugs were supplemented to the culture medium in 1- or 2 μl aliquots. The concentration of vehicle in the final incubation volume never exceeded 0.2-0.4%. […] Control cells incubated in the absence of drugs were similarly treated with vehicle only and, in every experiment, all incubates received the same volume of solvent.
For tumor cell growth, L1210 cells were resuspended in fresh serum-containing RPMI 1640 medium, plated at an initial density of 1×10^4 cells/0.5 ml, and incubated in 48-well Costar cell culture plates (Costar, Cambridge, Mass.). Cells were grown for 4 days in the presence or absence of drugs and their density was monitored every 24 h using a Coulter counter (Coulter Electronics, Ltd., Luton Beds, England). Data of all in vitro experiments were analyzed using Student's t-test with the level of significance set at P<0.05.

[2] = biological target: T1, tubulin protein from bovine brain (Bos taurus, UniProt P81947+Q6B856); experiment: Polymerization of pure tubulin in a cell-free system; assay type: biochemical; conditions: 25 μM, 35° C., 20 min, 2.5 mg/ml tubulin
T1 construct: tubulin protein from bovine brain (2.5 mg/ml); purchased Cytoskeleton (Denver, Colo.); host or cells: bovine brain
T1 sequence (P81947 whole entry): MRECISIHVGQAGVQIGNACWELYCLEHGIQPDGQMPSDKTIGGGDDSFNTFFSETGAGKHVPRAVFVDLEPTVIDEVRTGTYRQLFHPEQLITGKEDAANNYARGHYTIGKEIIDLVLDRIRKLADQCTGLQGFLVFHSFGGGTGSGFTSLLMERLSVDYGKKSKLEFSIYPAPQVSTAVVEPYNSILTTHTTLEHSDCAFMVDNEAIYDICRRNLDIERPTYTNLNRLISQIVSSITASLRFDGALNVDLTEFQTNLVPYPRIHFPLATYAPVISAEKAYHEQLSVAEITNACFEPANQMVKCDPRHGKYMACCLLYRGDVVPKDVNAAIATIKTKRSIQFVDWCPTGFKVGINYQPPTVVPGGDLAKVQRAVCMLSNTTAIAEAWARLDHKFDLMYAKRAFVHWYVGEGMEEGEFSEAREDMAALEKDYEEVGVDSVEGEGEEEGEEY
T1 sequence (Q6B856 whole entry): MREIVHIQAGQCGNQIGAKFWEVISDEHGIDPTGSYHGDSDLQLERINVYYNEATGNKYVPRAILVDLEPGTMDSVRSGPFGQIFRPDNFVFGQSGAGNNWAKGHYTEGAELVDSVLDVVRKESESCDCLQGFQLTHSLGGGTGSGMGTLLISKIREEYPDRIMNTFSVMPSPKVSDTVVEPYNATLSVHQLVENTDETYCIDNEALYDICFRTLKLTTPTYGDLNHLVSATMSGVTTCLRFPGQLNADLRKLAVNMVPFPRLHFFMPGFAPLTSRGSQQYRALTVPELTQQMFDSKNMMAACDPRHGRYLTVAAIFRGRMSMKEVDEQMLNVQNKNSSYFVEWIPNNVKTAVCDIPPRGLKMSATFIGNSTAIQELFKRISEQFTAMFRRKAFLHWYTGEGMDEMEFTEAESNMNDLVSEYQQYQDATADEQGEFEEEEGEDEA
Protocol: In a final volume of 200 μl, a solution of 2.5 mg/ml tubulin protein from bovine brain, 80 mM PIPES buffer, pH 6.8, 1 mM MgCl2, 1 mM EGTA, 1 mM GTP, and 10% glycerol was incubated at 35° C. for 20 minutes in the presence or absence (control) of 25 μM of compound 2A. The absorbance of the solution at OD340 nm was measured to determine the rate of tubulin polymerization.
Tubulin is a labile protein, which is unstable below 80 mM PIPES, should not be exposed to pH values less than 6.8 or greater than 7.0, and will not polymerize in the presence of Ca^2+. GTP and Mg^2+ are necessary for tubulin nativity and glycerol stabilizes tubulin and lowers the initial concentration required to initiate polymerization.
The ability of 2A to alter the polymerization of pure tubulin in a cell-free system in vitro was analyzed using the assay kit purchased from Cytoskeleton (Denver, Colo.). The polymerization reaction contained, in a final volume of 200 μl, tubulin protein from bovine brain (2.5 mg/ml), 80 mM PIPES buffer, pH 6.8, 1 mM MgCl2, 1 mM EGTA, 1 mM GTP and 10% glycerol. […] Samples were incubated at 35° C. in quartz microcells and the rate of tubulin polymerization was followed over 20 min by measuring the increased absorbance of the solution at OD340nm, using a Shimadzu UV-160 spectrophotometer equipped with dual-beam optics and a thermostatically-controlled cell holder. […]

[3] = test system: L1210 lymphoblastic leukemia cells; experiment: Inhibition of DNA synthesis (3H-thymidine incorporation) in L1210 cells in vitro; assay type: cell-based, Murine; conditions: Mus musculus
Protocol: FIG. 1 illustrates a comparison of the effects of four new tricyclic pyrone derivatives and CPT on DNA synthesis in L1210 cells in vitro. About 2.53×10^6 cells suspended in 0.5 ml of RPMI 1640 medium were incubated at 37° C. for 90 minutes in the presence or absence (control) of the indicated concentrations of drugs. The cells were then pulse-labeled for an additional 30 minutes to determine the rate of ^3H-thymidine incorporation into DNA. DNA synthesis in vehicle-treated control cells was 43,956±4,569 cpm (100±11%). The blank value (1,241±99 cpm) for cells pulse-labeled for 0 minutes with 1 μCi of ^3H-thymidine has been subtracted from the results. Bars: means±SD (n=3).
as §1
For DNA synthesis, L1210 cells were resuspended in fresh serum-free RPMI 1640 medium at a density of about 2.5×10^6 cells/0.5 ml. The cells were incubated at 37° C. for 90 min in the presence or absence of drugs and then pulse-labeled for an additional 30 min with 1 μCi of [methyl-^3H]thymidine (51 Ci/mmol; Amersham Corp., Arlington Heights, Ill.). The incubations were terminated by the addition of 0.5 ml of 10% trichloroacetic acid (TCA). After holding on ice for 15 min, the acid-insoluble material was recovered over Whatman GF/A glass microfibre filters and washed thrice with 2 ml of 5% TCA and twice with 2 ml of 100% EtOH. After drying the filters, the radioactivity bound to the acid-precipitable material was determined by liquid scintillation counting in 10 ml of Bio-Safe NA (Research Products International Corp., Mount Prospect, Ill.).

[4] = test system: MCF-7 human breast cancer cells; experiment: Growth of MCF-7 human breast cancer cells; assay type: cell-based
[5] = test system: T2, liver and intestinal microsomal ACAT; experiment: Inhibition of liver and intestinal microsomal ACAT activity; assay type: biochemical; conditions: using literature IC50 of pyripyropene as standard
T2 construct: other: 100 μM; other: 44 nM; other: 50 μM
Protocol: . Microsomes were prepared from liver and intestinal mucosal scrapings by sequential centrifugation and in vitro ACAT activity assays were done according to the method of Billheimer (Billheimer, J. T. (1985), “Cholesterol acyltransferase,” In Methods in Enzymology 111:286-293). Briefly, 100 μg microsomal protein, 22 μg BSA, and 52 nmol cholesterol and the synthesized drug in 5 μL DMSO were preincubated for 30 minutes at 37° C. in a phosphate buffer (200 μL total volume). After 30 minutes, 1 nmol [^14C]oleoyl-CoA was added as substrate and incubated for an additional 20 minutes. The reaction was stopped with the addition of 1 mL ethanol and lipids were extracted with hexane. Cholesteryl [^14C]oleate formation was quantified by thin-layer chromatography and data are expressed as percent inhibition of ACAT activity (pmol/μg protein per minute) compared to a control sample incubated with no drug. All samples were run in duplicate. […]

[6] = test system: EMT6 mammary carcinoma cells; experiment: Growth of EMT6 mammary carcinoma cells; assay type: cell-based

Compound: O=c1oc(-c2cccnc2)cc2c1C=C1CCCCC1O2 (stereo not drawn) [Compound 2A, 3-(3-pyridyl)-1H-5a,6,7,8,9-pentahydro-1-oxopyrano[4,3-b][1]benzopyran]
- inhibition of tumor cell growth ([1]; 1.56 μM, after 24 h): no effect
- times less potent than CPT at inhibiting leukemic cell growth ([1]; 6.25 μM 2A mimics 0.78 μM CPT over 4 days): about 8 times
- reduction of L1210 cell numbers vs control ([1]; 1 day): 28%
- reduction of L1210 cell numbers vs control ([1]; 2 days): 74%
- reduction of L1210 cell numbers vs control ([1]; 3 days): 90%
- reduction of L1210 cell numbers vs control ([1]; 4 days): 94%
- pIC50 ([1]; Mus musculus, L1210, 24 h, 1 day): 4.96
- pIC50 ([1]; Mus musculus, L1210, 48 h, 2 days): 5.70
- pIC50 ([1]; Mus musculus, L1210, 72 h, 3 days): 5.96
- pIC50 ([1]; Mus musculus, L1210, 96 h, 4 days): 5.96
- inhibition at 1.56 µM ([1]; Mus musculus, L1210, 1.56 μM, after 96 h): 83%
- inhibition at 50 µM ([1]; Mus musculus, L1210, 50 μM, 3 and 4 days in culture, read-out: inhibition of L1210 cell growth (% reduction of control cell numbers)): 91 to 100%
- inhibition of tubulin polymerization (OD340nm) [2]: completely inhibit polymerization of pure tubulin; also recorded: completely inhibits tubulin polymerization; also recorded: no significant MT polymerization can be detected
- inhibition at 50 µM ([3]; L1210, 50 μM, 90 min + 30 min pulse): 79 to 91%
- pIC50 ([3]; L1210 cells, 2 h, read-out: concentration that inhibits DNA synthesis by 50% (IC50)): ~5.07
- inhibition of growth of MCF-7 human breast cancer cells [4]: greater inhibitory effect than tricyclic pyrone 3A
- pIC50 [5]: 4.30
- inhibition of growth of EMT6 mammary carcinoma cells [6]: greater inhibitory effect than tricyclic pyrone 3A
